Data set [1] has as its system influenza A/Brisbane/10/2007 (H3N2). In words: microbe, parasite or virus in culture. Format: cell-based, influenza A virus. To be noted: for minimal effective concentration: Influenza A virus, H3N2, MDCK, read-out: Cytoprotective effect.
The subject of data set [2] is influenza A/Denver/1/57 (H1N1). In words: microbe, parasite or virus in culture. Format: cell-based, influenza A virus. To be noted: for minimal effective concentration: Influenza A virus, H1N1, MDCK, read-out: Cytoprotective effect.
For data set [3], the system named is influenza B/HongKong/5/72. Kind of data set: microbe, parasite or virus in culture. Format: cell-based, influenza B virus. To be noted: for minimal effective concentration: Influenza B virus, MDCK, read-out: Cytoprotective effect.
In data set [4] the test system is influenza B/Florida/04/06. It counts as cell-based. The following applies: for Relative activity: relative to Zanamivir.
Data set [5] relates to influenza A virus, A/HK/1/68 (H3N2). More on the design: species or system Balb/C mice (Mus musculus). The following applies: mouse, in vivo.
Data set [6] relates to Sol Isl sH1N1 wt (A/Solomon Islands/3/2006). Kind of data set: microbe, parasite or virus in culture. It counts as cell-based, influenza A virus. To be noted: read-out: IC50 Sol Isl sH1N1 wt.
For data set [7], the system named is Auckland pH1N1 wt (A/Auckland/3/2009). In words: microbe, parasite or virus in culture. Format: cell-based. The following applies: Influenza A virus, read-out: IC50 Auckland pH1N1 wt.
The next data set deals with Fukui H3N2 wt. In words: microbe, parasite or virus in culture. It counts as cell-based. To be noted: Influenza A virus, H3N2, read-out: IC50 Fukui H3N2 wt.
Another data set has as its system sH1N1/01 wt. In words: microbe, parasite or virus in culture. To be noted: Influenza A virus, read-out: IC50 sH1N1/01 wt. Format: cell-based.
For another data set, the system named is sH1N1/08 wt. Kind of data set: microbe, parasite or virus in culture. It counts as cell-based. To be noted: Influenza A virus, read-out: IC50 sH1N1/08 wt.
In the next data set the test system is MDCK cells. The following applies: dog.
For data set [8] the following is noted: Balb/C, mouse, in vivo, 1 mg/kg.
Another data set is described as follows: in vivo. To be noted: Balb/C, mouse, 1 mg/kg; for half-life: T1/2.
Data set [9] has as its target influenza sialidase (subtype N9) (Influenza A virus, UniProt P03472). Kind of data set: biochemical. It counts as biochemical.
Data set [10] has as its system B/Florida wt (B/Florida/4/2006). In words: microbe, parasite or virus in culture. It counts as cell-based. To be noted: Influenza B virus, read-out: IC50 B/Florida wt.
For the next data set, the system named is B/Perth wt. Kind of data set: microbe, parasite or virus in culture. The following applies: Influenza B virus, read-out: sensitivity to inhibitors, B/Perth wt. Format: cell-based.
The conditions of data set [11]: 1 mg/kg.
The next data set addresses H1N1 OsR (Influenza A virus (H1N1), UniProt Q289M4).

Structures are written as SMILES. Values joined by “and” are separate entries in the source; they are usually repeats but may differ in a detail not shown here. Equal entries are not always repeated. Where two headings read alike, the source gives them in different places.

influenza sialidase (subtype N9), sequence (P03472 whole entry, looked up): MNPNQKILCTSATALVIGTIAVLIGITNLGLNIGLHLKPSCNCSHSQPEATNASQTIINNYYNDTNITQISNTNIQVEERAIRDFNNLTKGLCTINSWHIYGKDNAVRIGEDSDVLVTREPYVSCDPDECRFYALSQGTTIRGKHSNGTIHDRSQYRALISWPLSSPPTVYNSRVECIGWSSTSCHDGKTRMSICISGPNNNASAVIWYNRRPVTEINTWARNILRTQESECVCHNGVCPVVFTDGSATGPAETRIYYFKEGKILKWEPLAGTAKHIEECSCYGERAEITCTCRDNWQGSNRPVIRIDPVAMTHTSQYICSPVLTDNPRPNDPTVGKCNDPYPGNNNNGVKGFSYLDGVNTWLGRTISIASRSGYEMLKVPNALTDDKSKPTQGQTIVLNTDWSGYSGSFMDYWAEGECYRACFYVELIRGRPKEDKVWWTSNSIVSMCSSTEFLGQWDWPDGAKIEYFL
H1N1 OsR, sequence (Q289M4 whole entry, looked up): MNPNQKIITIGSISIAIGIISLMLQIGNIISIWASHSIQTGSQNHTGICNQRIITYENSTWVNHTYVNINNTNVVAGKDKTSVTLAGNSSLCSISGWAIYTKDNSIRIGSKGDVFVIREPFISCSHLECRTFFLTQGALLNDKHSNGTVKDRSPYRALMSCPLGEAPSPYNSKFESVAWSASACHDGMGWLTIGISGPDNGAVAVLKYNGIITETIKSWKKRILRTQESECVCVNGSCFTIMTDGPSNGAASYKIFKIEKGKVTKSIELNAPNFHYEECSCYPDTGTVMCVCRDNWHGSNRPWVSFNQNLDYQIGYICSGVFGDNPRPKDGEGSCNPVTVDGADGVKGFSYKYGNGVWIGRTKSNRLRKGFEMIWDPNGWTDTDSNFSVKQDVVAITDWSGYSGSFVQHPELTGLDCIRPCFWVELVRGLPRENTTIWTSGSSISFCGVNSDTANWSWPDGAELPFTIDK

As usually defined, the AUC is concentration integrated over time. Usually half-life stands for how long it takes for the measured level to halve. Read a high half-life as slow loss. Take `CC(=O)N[C@H]1[C@H]([C@H](O)[C@H](O)CO)OC(C(=O)O)=C[C@@H]1N=C(N)N` [Zanamivir, reference compound]: the Cytoprotective effect in [1] amounted to 369.9 ng/mL; in data set [4], 2219 ng/mL; in data set [4] (Replicate 2), 887 ng/mL. Further, the Relative activity in [1], in data set [2], in data set [3], in [4] (Replicate 1) and in data set [4] (Replicate 2) was 1.0 in each case. Further, the “survival compared to the untreated control group” value in [5] is recorded as “significantly extended”. Also, the “% weight loss mean +/− SD” value in [5] (0.1 mg/kg) is reported as 16.73 +/− 2.62%; in data set [5] (1 mg/kg), 12.24 +/− 2.34%. The IC50 stood at 2.2 nM in data set [6]; 0.6 nM in [7]; 3.8 µM with Fukui H3N2 wt; 1.9 nM in the data set with sH1N1/01 wt; 1 nM in the data set with sH1N1/08 wt. Also, the Relative toxicity in the data set on MDCK cells is 1.0. Besides, in the data set with MDCK cells, the Toxicity was 568 µg/mL. Further, the “AUC(Lung) (Zanamivir/DFSA-4Gu)” value in [8] (inhaled or intranasal) was 1.07. Moreover, the AUC in “in vivo” (inhaled or intranasal) was 4230 ng·h/mL. In the data set “in vivo” (inhaled or intranasal), this compound had a half-life of 19.1 min.

As usually defined, the Kd is the equilibrium constant for the complex coming apart. Lower therefore signals a tighter complex. As to `CCNC1C(F)[C@](F)(C(=O)O)OC([C@H](O)[C@H](O)CO)[C@@H]1NC(C)=O` (stereo partly drawn) [Compound 7, (2R,3R)-4-(N-Ethyl) amino-2,4-dideoxy-2,3-difluorosialic acid], the “half time for the full inactivation of the sialidase” value (“half time for the full inactivation” below) in data set [9] is reported as “ca. 10 min”. Besides, the equilibrium dissociation constant (Kd) in data set [9] (30° C., pH 7.6) came out at 14 µM. Moreover, in data set [9] (pH 7.6), the ki/Kd was found to be 4.1 min⁻¹ mM⁻¹. For the same compound, the Cytoprotective effect is 61.0 ng/mL in [1], 3267 ng/mL in [4] (Replicate 1) and 3267 ng/mL in [4] (Replicate 2). Besides, the minimal effective concentration in [1] worked out at 0.122 µg/mL; in data set [2], 3.91 µg/mL; in data set [3], 3.91 µg/mL. Further, the Relative activity turned out to be 0.001 in data set [2], 0.57 in data set [3], 0.67 in data set [4] (Replicate 1) and 0.27 in [4] (Replicate 2). In addition, the Relative toxicity in the data set on MDCK cells came to 72.7. Moreover, the Toxicity in the data set on MDCK cells is 7.8 µg/mL.

In the case of `CC(=O)NC1C(F)[C@](F)(C(=O)O)OC([C@H](O)[C@H](O)CO)[C@@H]1NC(C)=O` (stereo partly drawn) [Compound 11, (2R,3R)-4-(N-Acetyl) amino-2,4-dideoxy-2,3-difluorosialic acid], in [9], the “half time for the full inactivation” value is “ca. 10 min”. The compound also gave an equilibrium dissociation constant (Kd) in data set [9] (30° C., pH 7.6) of 397 µM. In addition, in data set [9] (pH 7.6), the ki/Kd came to 0.53 min⁻¹ mM⁻¹. In addition, in [1], the Relative activity is listed as 0.2 and the minimal effective concentration is 1.6 µg/mL. In the data set with MDCK cells, this compound came in with a Relative toxicity of 5.6 and a Toxicity of 102.3 µg/mL.

As for `CC(=O)N[C@@H]1C(O)C(F)[C@](F)(C(=O)O)OC1[C@H](O)[C@H](O)CO` (stereo partly drawn) [Compound 23DFSA, 2,3-Difluorosialic acid, reference compound], in data set [9] (4° C.), the ki/Kd is 196 and 196^b min^−1mM^−1. Moreover, the Relative activity was determined as 0.001 in [2] and 0.07 in data set [3]. For the same compound, the figures for the minimal effective concentration in data set [2] and in data set [3] were 4.26 µg/mL and 34.1 µg/mL, respectively.

As usually defined, the Ki is the dissociation constant of the complex between target and ligand, obtained from inhibition or displacement. In the case of `CC(=O)N[C@@H]1C(NCc2ccccc2)C(F)[C@](F)(C(=O)O)OC1[C@H](O)[C@H](O)CO` (stereo partly drawn) [C4 Bn], in [9] (30° C., pH 7.6), the Kd worked out at 306 µM; the affinity, expressed as Ki, was 4080 nM; the khyd was determined as 0.0025 min⁻¹. Further, in data set [9] (pH 7.6), the ki/Kd was found to be 0.61 min⁻¹ mM⁻¹.

As to `CC(=O)N[C@@H]1C(N)C(F)[C@](F)(C(N)=O)OC1[C@H](O)[C@H](O)CO` (stereo partly drawn) [Compound 9, (2R,3R)-4-Amino-2,4-dideoxy-2,3-difluorosialylamide], the “half time for the full inactivation” value in data set [9] is “ca. 10 min”. This compound returned a Kd in data set [9] (30° C., pH 7.6) of 1020 µM. This compound also showed a ki/Kd in data set [9] (pH 7.6) of 0.34 min⁻¹ mM⁻¹. Also, in [1], the Relative activity is reported as 2.4 and the minimal effective concentration amounted to 0.118 µg/mL. Besides, in [2], the Relative activity came out at 0.001 and the minimal effective concentration was determined as 3.76 µg/mL. Moreover, in data set [3], the Relative activity amounted to 0.15 and the minimal effective concentration came out at 15.1 µg/mL. In the data set on MDCK cells, the Relative toxicity came to 75.5 and the Toxicity was determined as 7.5 µg/mL.

For the compound `CCOC(=O)[C@]1(F)OC([C@H](O)[C@H](O)CO)[C@H](NC(C)=O)C(NC(=N)N)C1F` (stereo partly drawn) [Compound 13, Ethyl (2R,3R)-4-Guanyl-2,4-dideoxy-2,3-difluorosialylate], in data set [1], the Relative activity is 6.3 and 8.3; the minimal effective concentration turned out to be 0.0444 µg/mL. In addition, in data set [2], the Relative activity is given as 0.006 and the minimal effective concentration stood at 0.71 µg/mL. In [3], the Relative activity is 3.13 and the minimal effective concentration worked out at 0.71 µg/mL. In the data set on MDCK cells, the Relative toxicity stood at 400.0 and the Toxicity was 1.4 µg/mL.

Turning to `CC(=O)N[C@@H]1C(N=[N+]=[N-])C(F)[C@](F)(C(=O)O)OC1[C@H](O)[C@H](O)CO` (stereo partly drawn) [Compound 8, (2R,3R)-4-Azido-2,4-dideoxy-2,3-difluorosialic acid], in data set [9] (4° C.), the affinity, expressed as Kd, was 240 µM; the “fold lower kinetic value (ki/Kd) than 23DFSA” value was found to be 26 fold; the ki/Kd is 7.5 and 7.5^b min^−1mM^−1. Besides, in [1], the Relative activity is reported as 2.7 and the minimal effective concentration was determined as 0.104 µg/mL. In addition, in the data set with MDCK cells, the Relative toxicity turned out to be 10.6 and the Toxicity turned out to be 53.4 µg/mL.

On to `CC(=O)N[C@@H]1C(NC(=N)N)C(F)[C@](F)(C(=O)O)OC1[C@H](O)[C@H](O)CO` (stereo partly drawn) [Compound 12, (2R,3R)-4-Guanyl-2,4-dideoxy-2,3-difluorosialic acid], for which the “half time for the full inactivation” value in data set [9] is given as “ca. 10 min”. In data set [9], the “half time for the full reactivation of the inactivated sialidase” value worked out at 6.7 h. This compound displayed a Kd in [9] (30° C., pH 7.6) of 9 µM. Further, the Ki in data set [9] (30° C., pH 7.6) was 70 nM and 70.4 nM. The compound further returned a khyd in [9] (30° C., pH 7.6) of 0.0017 min⁻¹. In addition, the Cytoprotective effect in [1] is 74 ng/mL. The “survival compared to the untreated control group” value in data set [5] is “significantly extended”. Also, the “% weight loss mean +/− SD” value in data set [5] (1 mg/kg) is recorded as 10.75 +/− 4.87%; in [11] (mouse, in vivo), 4.72 +/− 2.78%. Moreover, the IC50 in [10] worked out at 6.6 nM; in the data set on Fukui H3N2 wt, 2010 µM; with sH1N1/01 wt, 115 nM; in the data set with B/Perth wt, 54 nM. In the data set on MDCK cells, this compound registered a Toxicity of 0.9 µg/mL. In addition, the figures for the Cinitial in data set [8] and in [8] (iv) were 4954 ng/mL and 9480 ng/mL, respectively. Besides, the “number of animals remaining” value in data set [11] (n = 5) came to 5. Also, the “Half life for reactivation” value at H1N1 OsR was found to be 116 h. The ki on H1N1 OsR (pH 7.6) was found to be 0.075 ± 0.002 min⁻¹. Also, the half-life in “in vivo” (inhaled or intranasal) is 17.3 min; in “in vivo” (iv), 8.3 min.

For `CCOC(=O)[C@]1(F)OC([C@H](O)[C@H](O)CO)[C@H](NC(C)=O)C(N)C1F` (stereo partly drawn) [Compound 5, Ethyl (2R,3R)-4-Amino-2,4-dideoxy-2,3-difluorosialylate], the Relative activity was 36.4 and 48.6 in [1]; 0.009 in data set [2]; 2.27 in [3]; 7.7 in [4] (Replicate 1); 3.1 in data set [4] (Replicate 2). The minimal effective concentration in data set [1] was 0.0076 µg/mL; in data set [2], 0.488 µg/mL; in data set [3], 0.977 µg/mL. Besides, the Cytoprotective effect in data set [4] (Replicate 1) and in [4] (Replicate 2) was 290 ng/mL in each case. For the same compound, in the data set on MDCK cells, the Relative toxicity worked out at 4.5. The compound also came in with a Toxicity in the data set with MDCK cells of 125.0 µg/mL.

`CCOC(=O)C1=C[C@@H](OC(CC)CC)[C@H](NC(C)=O)[C@@H](N)C1` [Oseltamivir]: the IC50 stood at 22.6 nM in data set [10]; 1 nM in [6] (Influenza A virus); 0.2 nM in data set [7]; 1.7 µM in the data set with Fukui H3N2 wt; 3.1 nM in the data set with sH1N1/01 wt; 3 nM in the data set with sH1N1/08 wt.

Values taken from patent publication US9834534B2, “Neuraminidase inhibitor compounds, compositions and methods for the use thereof in anti-viral treatments” (THE UNIVERSITY OF BRITISH COLUMBIA, priority 2009, dated 2017).
